Experiments:
[1] = tested on: FEN1 chromatin enrichment in HeLa cells; test: Chromatin retention assay (immunofluorescence, CSK-extracted cells); format: cell-based; conditions: 24 h treatment
Experimental: HeLa cells were seeded at a density of 4000 cells per well in 100 μl of media in collagen-coated 96-well plates (Revvity, #6055700). Sixteen to twenty-four hours after seeding, compounds were dispensed using the D300e digital dispenser (Tecan) to generate a multipoint dose–response curve, equalized to final DMSO concentration. After 24 h, cells were washed with phosphate buffered saline (PBS) and pre-extracted with 50 μl of ice-cold cytoskeletal (CSK) buffer [10 mM PIPES pH 6.8 (Sigma–Aldrich, P8203-50G), 100 mM NaCl (VWR, 27810.295), 300 mM sucrose (Sigma–Aldrich, S0389-500G), 1.5 mM MgCl2 (VWR, 8760.29), 5 mM EDTA (Sigma–Aldrich, E7889-100ML), 0.4% Triton […] (Sigma–Aldrich, T9285-500ML)], for 4 min on ice. Cells were then washed with PBS and fixed in 4% paraformaldehyde (PFA) (ChemCruz, sc-281692) for 10 min at room temperature.
For immunofluorescence staining, cells were washed with PBS then blocked and permeabilized with PBS containing 0.5% bovine serum albumin (BSA) and 0.5% Triton X-100 (blocking buffer) for 1 h at room temperature. Cells were then stained with the indicated markers (FEN1 or PARP1) by incubation with primary antibodies (Supplementary Table S5) diluted in blocking buffer, at room temperature for 4 h (FEN1) or overnight at 4°C (PARP1). […]

[2] = tested on: MDA-MB-436 cells; test: Colony formation assay; format: cell-based
Experimental: Exponentially growing DLD-1, DLD-1 BRCA2^KO, SUM149PT, and MDA-MB-436 were seeded on 24-well plates at densities of 100, 400, 500, or 650 cells/well, respectively. Cells were treated with a serial dilution of FEN1 inhibitor and incubated for 11 days (DLD-1 and SUM149PT) or 14 days (DLD-1 BRCA2^KO and MDA-MB-436). Colonies were washed with PBS, fixed with 70% ethanol, and stained with 1% crystal violet solution (Sigma–Aldrich). Excess crystal violet solution was washed off using tap water and images were acquired using a GelCount Scanner (Oxford Optronix). Dye was solubilized with 10% acetic acid (VWR) and absorbance at 595 nm measured using a CLARIOstar plate reader (BMG LABTECH Ltd.). Raw absorbance data for each cell line were normalized to DMSO treatment. Data were fitted with a nonlinear regression curve (four parameters) to determine EC50 (half maximal inhibitory concentration) values.

[3] = biological target: T1, GEN1 (Homo sapiens, UniProt Q17RS7); test: Fluorescence-based nuclease activity assay, GEN1; format: biochemical; conditions: n = 11, SD = 569; cognate substrate
T1 construct: Truncated GEN1 (1-527) was expressed in insect cells; Strep-tag (implied by Streptrap column); made in house; host or cells: insect cells
T1 sequence (Q17RS7 1-527): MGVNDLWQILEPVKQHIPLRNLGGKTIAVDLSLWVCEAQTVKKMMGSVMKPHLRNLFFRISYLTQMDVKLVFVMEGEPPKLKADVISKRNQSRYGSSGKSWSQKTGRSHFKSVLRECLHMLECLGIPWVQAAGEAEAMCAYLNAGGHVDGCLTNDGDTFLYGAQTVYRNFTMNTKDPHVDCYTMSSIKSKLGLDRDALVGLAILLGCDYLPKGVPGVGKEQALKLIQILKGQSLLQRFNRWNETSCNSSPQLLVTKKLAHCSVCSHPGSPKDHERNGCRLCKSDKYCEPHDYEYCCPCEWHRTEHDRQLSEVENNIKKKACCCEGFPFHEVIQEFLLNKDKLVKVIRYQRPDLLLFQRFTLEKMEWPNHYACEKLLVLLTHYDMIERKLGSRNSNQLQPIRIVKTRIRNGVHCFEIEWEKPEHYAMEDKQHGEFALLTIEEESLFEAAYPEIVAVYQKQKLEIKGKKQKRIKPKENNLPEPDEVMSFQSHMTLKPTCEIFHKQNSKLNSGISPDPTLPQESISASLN
Experimental: MSC778 was dissolved in dimethyl sulphoxide (DMSO) to give a 10 mM stock. FEN1/EXO1: compound was dispensed into black 384-shallow well microplates (Greiner #784076). The compound was dispensed as an 11-point dose response with a 3-fold serial dilution from a top concentration of 10 mM (to give a final in-assay concentration of 100 µM). GEN1/XPG: MSC778 was dispensed into black 1536-well plates (Greiner #782076). The compound was dispensed as a 20-point dose response with a 3-fold serial dilution from a top concentration of 10 mM (to give a final in-assay concentration of 100 µM). The volume of DMSO was adjusted to ensure that each well contained 1% (v/v) DMSO in the final assay. Control wells containing DMSO alone or inhibitor at sufficient concentration to cause complete inhibition of the reaction were also included. […]
5 µl (FEN1/EXO1) or 3 µl per well (GEN1/XPG) of stop buffer (20 mM Tris pH 7.5, 300 mM EDTA) was added to all wells, then the plates were read on the CLARIOstar Plus (BMG LABTECH Ltd.) using the Fluorescein (FITC) wavelengths (Ex 483 ± 14, Em 530 ± 30, Dichroic auto/502.5) and auto focal height/gain settings.
All data analysis was carried out using Genedata Screener software. IC50 values were calculated using the SmartFit function.

EC50 ([1]; Homo sapiens, unchallenged HeLa cells)	IC50 [3]	Structure (SMILES)	EC50 ([2]; Homo sapiens, 336 h, MDA-MB-436, 14 days, read-out: Colony survival EC50)	Enhancement in sensitivity in colony survival versus 7-day viability assay ([2]; MDA-MB-436)	Chromatin enrichment (of either FEN1 or PARP1) and DNA damage signalling ([1]; HeLa cells)
1200 nM	1660 nM	C[C@H](Oc1nn2c(c(O)c1=O)C(=O)N1CCOC[C@@H]1C2)c1ccc2ccc(Cl)cc2c1 [MSC778]	65 nM	10 fold	–
–	–	C[C@@H](Oc1nn2c(c(O)c1=O)C(=O)N1CCOC[C@@H]1C2)c1ccc2ccc(Cl)cc2c1 [MSC781]	–	–	not enhanced

Reference: paper PMC12684391, “Mechanistic insights into the monotherapy and combination potential of FEN1 inhibition in cancer therapy” (Nucleic Acids Research, 2025)
